Results taken from patent publication US11180462B2, “Microbiocidal oxadiazole derivatives” (SYNGENTA PARTICIPATIONS AG, priority 2015, dated 2021).

Tests used:
[1] = system: Glomerella lagenarium (Colletotrichum lagenarium); test: Fungicidal activity against Glomerella lagenarium (Colletotrichum lagenarium) liquid culture / cucumber / preventative (anthracnose); assay type: cell-based; conditions: Colletotrichum orbiculare; 20 ppm in the applied formulation; liquid culture (PDB), growth inhibition measured photometrically after 3 to 4 days; compared to untreated control; read-out: disease control
In short: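 Percent activity against the untreated check was derived from photometric growth measurements made 2 to 7 days after conidia in potato dextrose broth were combined with compound at 20 ppm. Cultures were kept dark at 24 °C and 96% humidity.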

[2] = system: Puccinia recondita f. Sp. Tritici; test: Fungicidal activity against Puccinia recondita f. sp. tritici / wheat / leaf disc curative (brown rust); assay type: in vivo; conditions: foliar, 24 h, 200 ppm in the applied formulation, wheat leaf segments, curative (applied 1 day after inoculation), compared to untreated control leaf disks, read-out: disease control
In short: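 Curative leaf-segment test: compound diluted in water applied 1 day after spore inoculation of cv. Kanzler wheat segments on agar. Conditions 19° C, 75% RH, 12 h/12 h light cycle. Read-out: % disease control relative to untreated check, 6 to 8 days after application.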

Phakopsora Pachyrhizi = test: Fungicidal activity against Phakopsora pachyrhizi / soybean / leaf disc preventative (Asian soybean rust); assay type: in vivo; conditions: foliar, 200 ppm in the applied formulation, soybean leaf disks, compared to untreated control leaf disks, read-out: disease control
In short: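 Scored 12 to 14 days post-application as percent control relative to untreated check discs, rust spores were sprayed under the disc one day after compound treatment. Incubation: 20°C, 75% rh, first 24–36 h in darkness, then 12 h daily light; discs kept on water agar.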

[3] = system: Puccinia recondita f. Sp. Tritici; test: Fungicidal activity against Puccinia recondita f. sp. tritici / wheat / leaf disc preventative (brown rust); assay type: in vivo; conditions: foliar, 200 ppm in the applied formulation, wheat leaf segments, preventative, compared to untreated control leaf disks, read-out: disease control
In short: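 200 ppm spray on wheat cv. Kanzler leaf segments; spore inoculation +1 day; 19° C., 75% rh, 12 h/12 h light cycle; single rating of % control vs untreated at 7 to 9 days.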

N#CCC(=O)N(Cc1ccc(-c2noc(C(F)(F)F)n2)cc1)CC1CC1 [Compound 1.243, 2-cyano-N-(cyclopropylmethyl)-N-[[4-[5-(trifluoromethyl)-1,2,4-oxadiazol-3-yl]phenyl]methyl]-acetamide]
≥ 80%: inhibition of growth at 20 ppm [1] | pest or weed control at 200 ppm [2] | pest or weed control at 200 ppm (Phakopsora Pachyrhizi) | pest or weed control at 200 ppm [3]

CCNC(=O)N(Cc1ccc(-c2noc(C(F)(F)F)n2)cc1)OC [Compound 3.12, 3-ethyl-1-methoxy-1-[[4-[5-(trifluoromethyl)-1,2,4-oxadiazol-3-yl]phenyl]methyl]urea]
≥ 80%: inhibition of growth at 20 ppm [1] | pest or weed control at 200 ppm [2] | pest or weed control at 200 ppm (Phakopsora Pachyrhizi) | pest or weed control at 200 ppm [3]

CON(Cc1ccc(-c2noc(C(F)(F)F)n2)cc1)C(=O)CC1CC1(F)F (stereo not shown) [Compound 1.64, 2-(2.2-difluorocyclopropyl)-N-methoxy-N-[[4-[5-(trifluoromethyl)-1,2,4-oxadiazol-3-yl]phenyl]methyl]-acetamide]
≥ 80%: inhibition of growth at 20 ppm [1] | pest or weed control at 200 ppm [2] | pest or weed control at 200 ppm (Phakopsora Pachyrhizi) | pest or weed control at 200 ppm [3]

C#CCOC(=O)NC(C(=O)N(Cc1ccc(-c2noc(C(F)(F)F)n2)cc1)OC)C(C)C (stereo not shown) [Compound 1.77, prop-2-ynyl N-[1-[methoxy-[[4-[5-(trifluoromethyl)-1,2,4-oxadiazol-3-yl]phenyl]methyl]carbamoyl]-2-methyl-propyl]carbamate]
≥ 80%: inhibition of growth at 20 ppm [1] | pest or weed control at 200 ppm [2] | pest or weed control at 200 ppm (Phakopsora Pachyrhizi) | pest or weed control at 200 ppm [3]

C=CCN(Cc1ccc(-c2noc(C(F)(F)F)n2)cc1)C(=O)CCC [Compound 1.485, N-allyl-N-[[4-[5-(trifluoromethyl)-1,2,4-oxadiazol-3-yl]phenyl]methyl]-butanamide]
≥ 80%: inhibition of growth at 20 ppm [1] | pest or weed control at 200 ppm [2] | pest or weed control at 200 ppm (Phakopsora Pachyrhizi) | pest or weed control at 200 ppm [3]

CON(Cc1ccc(-c2noc(C(F)(F)F)n2)cc1)C(=O)C1CCC1 [Compound 1.38, N-methoxy-N-[[4-[5-(trifluoromethyl)-1,2,4-oxadiazol-3-yl]phenyl]methyl]-cyclobutane-carboxamide]
≥ 80%: inhibition of growth at 20 ppm [1] | pest or weed control at 200 ppm [2] | pest or weed control at 200 ppm (Phakopsora Pachyrhizi) | pest or weed control at 200 ppm [3]

COC(C)C(=O)N(Cc1ccc(-c2noc(C(F)(F)F)n2)cc1)OC (stereo not shown) [Compound 1.81, N,2-dimethoxy-N-[[4-[5-(trifluoromethyl)-1,2,4-oxadiazol-3-yl]phenyl]methyl]-propanamide]
≥ 80%: inhibition of growth at 20 ppm [1] | pest or weed control at 200 ppm [2] | pest or weed control at 200 ppm (Phakopsora Pachyrhizi) | pest or weed control at 200 ppm [3]

C#CCN(Cc1ccc(-c2noc(C(F)(F)F)n2)cc1)C(=O)C1(C(F)(F)F)CC1 [Compound 1.151, N-prop-2-ynyl-1-(trifluoromethyl)-N-[[4-[5-(trifIuoromethyl)-1,2,4-oxadiazol-3-yl]phenyl]methyl]-cyclopropane-carboxamide]
≥ 80%: inhibition of growth at 20 ppm [1] | pest or weed control at 200 ppm [2] | pest or weed control at 200 ppm (Phakopsora Pachyrhizi) | pest or weed control at 200 ppm [3]

CCN(Cc1ccc(-c2noc(C(F)(F)F)n2)cc1)C(=O)C1CCC1 [Compound 1.498, N-ethyl-N-[[4-[5-(trifluoromethyl)-1,2,4-oxadiazol-3-yl]phenyl]methyl]-cyclobulane-carboxamide]
≥ 80%: inhibition of growth at 20 ppm [1] | pest or weed control at 200 ppm [2] | pest or weed control at 200 ppm (Phakopsora Pachyrhizi) | pest or weed control at 200 ppm [3]

CON(Cc1ccc(-c2noc(C(F)(F)F)n2)c(F)c1F)C(=O)C1CC1 [Compound 1.584, N-[[2,3-difluoro-4-[5-(trifluoromethyl)-1,2,4-oxadiazol-3-yl]phenyl]methyl]-N-methoxy-cyclopropane-carboxamide]
≥ 80%: inhibition of growth at 20 ppm [1] | pest or weed control at 200 ppm [2] | pest or weed control at 200 ppm (Phakopsora Pachyrhizi) | pest or weed control at 200 ppm [3]

CCCN(Cc1ccc(-c2noc(C(F)(F)F)n2)cc1)C(=O)C1CCCO1 (stereo not shown) [Compound 1.663, N-propyl-N-[[4-[5-(trifluoromethyl)-1,2,4-oxadiazol-3-yl]pheny1]methyl]-tetrahydrofuran-2-carboxamide]
≥ 80%: inhibition of growth at 20 ppm [1] | pest or weed control at 200 ppm [2] | pest or weed control at 200 ppm (Phakopsora Pachyrhizi) | pest or weed control at 200 ppm [3]

CCC(C)N(Cc1ccc(-c2noc(C(F)(F)F)n2)cc1)C(=O)COC(C)=O (stereo not shown) [Compound 1.392, [2-oxo-2-[sec-butyl-[[4-[5-(trifluoromethyl)-1,2,4-oxadiazol-3-yl]phenyl]methyl]-amino]ethyl] acetate]
≥ 80%: inhibition of growth at 20 ppm [1] | pest or weed control at 200 ppm [2] | pest or weed control at 200 ppm (Phakopsora Pachyrhizi) | pest or weed control at 200 ppm [3]

O=C(NC1CC1)N(Cc1ccc(-c2noc(C(F)(F)F)n2)cc1)C1CC1 [Compound 3.36, 1,3-dicyclopropyl-1-[[4-[5-(trifluoromethyl)-1,2,4-oxadiazol-3-yl]phenyl]methyl]urea]
≥ 80%: inhibition of growth at 20 ppm [1] | pest or weed control at 200 ppm [2] | pest or weed control at 200 ppm (Phakopsora Pachyrhizi) | pest or weed control at 200 ppm [3]

CCCN(Cc1ccc(-c2noc(C(F)(F)F)n2)cc1)C(=O)C(C)OC (stereo not shown) [Compound 1.666, 2-methoxy-N-propyl-N-[[4-[5-(trifluoromethyl)-1,2,4-oxadiazol-3-yl]phenyl]methyl]-propanamide]
≥ 80%: inhibition of growth at 20 ppm [1] | pest or weed control at 200 ppm [2] | pest or weed control at 200 ppm (Phakopsora Pachyrhizi) | pest or weed control at 200 ppm [3]

CCN(Cc1ccc(-c2noc(C(F)(F)F)n2)cc1)C(=O)C(C)C [Compound 1.503]
≥ 80%: inhibition of growth at 20 ppm [1] | pest or weed control at 200 ppm [2] | pest or weed control at 200 ppm (Phakopsora Pachyrhizi) | pest or weed control at 200 ppm [3]

CON(Cc1ccc(-c2noc(C(F)(F)F)n2)cc1)C(=O)NC1CCCC1 [Compound 3.23, 3-cyclopentyl-1-methoxy-1-[[4-[5-(trifluoromethyl)-1,2,4-oxadiazol-3-yl]phenyl]methyl]urea]
≥ 80%: inhibition of growth at 20 ppm [1] | pest or weed control at 200 ppm [2] | pest or weed control at 200 ppm (Phakopsora Pachyrhizi) | pest or weed control at 200 ppm [3]

O=C(C1CCCO1)N(Cc1ccc(-c2noc(C(F)(F)F)n2)cc1)CC(F)(F)F (stereo not shown) [Compound 1.587, N-(2,2,2-Trifluoroethyl)-N-[[4-[5-(Trifluoromethyl)-1,2,4-Oxadiazol-3-yl]Phenyl]Methyl]Tetrahydrofuran-2-Carboxamide]
≥ 80%: inhibition of growth at 20 ppm [1] | pest or weed control at 200 ppm [2] | pest or weed control at 200 ppm (Phakopsora Pachyrhizi) | pest or weed control at 200 ppm [3]

C#CCN(Cc1ccc(-c2noc(C(F)(F)F)n2)cc1)C(=O)C(C)CC (stereo not shown) [Compound 1.191, 2-methyl-N-prop-2-ynyl-N-[[4-[5-(trifluoromethyl)-1,2,4-oxadiazol-3-yl]phenyl]methy]-butanamide]
≥ 80%: inhibition of growth at 20 ppm [1] | pest or weed control at 200 ppm [2] | pest or weed control at 200 ppm (Phakopsora Pachyrhizi) | pest or weed control at 200 ppm [3]

C=CCN(C(=O)CC)C(C#N)c1ccc(-c2noc(C(F)(F)F)n2)cc1 (stereo not shown) [Compound 1.592, N-allyl-N-[cyano-[4-[5-(trifluoromethyl)-1,2,4-oxadiazol-3-yl]phenyl]methyl]-propanamide]
≥ 80%: inhibition of growth at 20 ppm [1] | pest or weed control at 200 ppm [2] | pest or weed control at 200 ppm (Phakopsora Pachyrhizi) | pest or weed control at 200 ppm [3]
